Results taken from patent US10435401B2, “Pesticidally active tetracyclic derivatives with sulphur containing substituents” (Syngenta Participations AG, priority 2014, dated 2019).

What was measured:
Assay type in all cases: in vivo
[1] = tested on: Myzus persicae (Green Peach Aphid); assay: Myzus persicae intrinsic activity; settings: 120 h, test rate of 12 ppm, compound in sucrose solution under Parafilm, 5 days after infestation
Description: Example B7: Myzus persicae (Green Peach Aphid): Intrinsic Activity
Test compounds from 10′000 ppm DMSO stock solutions were applied by pipette into 24-well microtiter plates and mixed with sucrose solution. The plates were closed with a stretched Parafilm. A plastic stencil with 24 holes was placed onto the plate and infested pea seedlings were placed directly on the Parafilm. The infested plate was closed with a gel blotting paper and another plastic stencil and then turned upside down. The samples were assessed for mortality 5 days after infestation.

[2] = tested on: Diabrotica balteata (Corn Root Worm); assay: Diabrotica balteata feeding/contact activity; settings: 96 h, application rate of 200 ppm, L2 larvae on sprayed maize sprouts, 4 days after infestation
Procedure: Example B2: Diabrotica balteata (Corn Root Worm): Feeding/Contact Activity
Maize sprouts, placed on an agar layer in 24-well microtiter plates were treated with aqueous test solutions prepared from 10′000 ppm DMSO stock solutions by spraying. After drying, the plates were infested with L2 larvae (6 to 10 per well). The samples were assessed for mortality and growth inhibition in comparison to untreated samples 4 days after infestation.

[3] = tested on: Tetranychus urticae (Two-Spotted Spider Mite); assay: Tetranychus urticae feeding/contact activity; settings: foliar, 192 h, application rate of 200 ppm, mite population of mixed ages (mobile stages) on sprayed bean leaf discs, 8 days after infestation
Procedure: Example B11: Tetranychus urticae (Two-Spotted Spider Mite):Feeding/Contact Activity
Bean leaf discs on agar in 24-well microtiter plates were sprayed with aqueous test solutions prepared from 10′000 ppm DMSO stock solutions. After drying the leaf discs were infested with a mite population of mixed ages. The samples were assessed for mortality on mixed population (mobile stages) 8 days after infestation.

[4] = tested on: Spodoptera littoralis (Egyptian Cotton Leaf Worm); assay: Spodoptera littoralis feeding/contact activity; settings: foliar, 72 h, application rate of 200 ppm, L1 larvae on sprayed cotton leaf discs, 3 days after infestation, read-out: control (at least one of mortality, anti-feedant effect, growth inhibition)
Procedure: Example B9: Spodoptera littoralis (Egyptian Cotton Leaf Worm): Feeding/Contact Activity
Cotton leaf discs were placed on agar in 24-well microtiter plates and sprayed with aqueous test solutions prepared from 10′000 ppm DMSO stock solutions. After drying the leaf discs were infested with five L1 larvae. The samples were assessed for mortality, anti-feedant effect, and growth inhibition in comparison to untreated samples 3 days after infestation. Control of Spodoptera littoralis by a test sample is when at least one of mortality, anti-feedant effect, and growth inhibition is higher than the untreated sample.

[5] = tested on: Euschistus heros (Neotropical Brown Stink Bug); assay: Euschistus heros feeding/contact activity; settings: 120 h, application rate of 200 ppm, N-2 nymphs on sprayed soybean leaf, 5 days after infestation, read-out: effect in at least one of the two categories (mortality or growth inhibition)
Procedure: Example B3: Euschistus heros (Neotropical Brown Stink Bug): Feeding/Contact Activity
Soybean leaf on agar in 24-well microtiter plates were sprayed with aqueous test solutions prepared from 10′000 ppm DMSO stock solutions. After drying the leaf were infested with N-2 nymphs. The samples were assessed for growth inhibition in comparison to untreated samples 5 days after infestation.

[6] = tested on: Myzus persicae (Green Peach Aphid); assay: Myzus persicae feeding/contact activity; settings: foliar, 144 h, application rate of 200 ppm, aphid population of mixed ages on sprayed sunflower leaf discs, 6 days after infestation
Procedure: Example B5: Myzus persicae (Green Peach Aphid): Feeding/Contact Activity
(§1) Sunflower leaf discs were placed on agar in a 24-well microtiter plate and sprayed with aqueous test solutions prepared from 10′000 ppm DMSO stock solutions. After drying, the leaf discs were infested with an aphid population of mixed ages. The samples were assessed for mortality 6 days after infestation.

[7] = tested on: Myzus persicae (Green Peach Aphid); assay: Myzus persicae systemic activity; settings: 144 h, test rate of 24 ppm, roots of infested pea seedlings in test solution, 6 days
Procedure: Example B6: Myzus persicae (Green Peach Aphid): Systemic Activity
Roots of pea seedlings infested with an aphid population of mixed ages were placed directly in the aqueous test solutions prepared from 10′000 ppm DMSO stock solutions. The samples were assessed for mortality 6 days after placing seedlings in test solutions.

[8] = tested on: Plutella xylostella (Diamond Back Moth); assay: Plutella xylostella feeding/contact activity; settings: 120 h, application rate of 200 ppm, L2 larvae on treated artificial diet, 5 days after infestation, read-out: effect in at least one of the two categories (mortality or growth inhibition)
Procedure: Example B8: Plutella xylostella (Diamond Back Moth): Feeding/Contact Activity
24-well microtiter plates with artificial diet were treated with aqueous test solutions prepared from 10′000 ppm DMSO stock solutions by pipetting. After drying, the plates were infested with L2 larvae (10 to 15 per well). The samples were assessed for mortality and growth inhibition in comparison to untreated samples 5 days after infestation.

[9] = tested on: Spodoptera littoralis (Egyptian Cotton Leaf Worm); assay: Spodoptera littoralis systemic activity; settings: 144 h, test rate of 12.5 ppm, compound in agar taken up by lettuce roots, 6 days after infestation, read-out: effect in at least one of the three categories (mortality, anti-feedancy, or growth inhibition)
Procedure: Example B10: Spodoptera littoralis (Egyptian Cotton Leaf Worm): Systemic Activity
Test compounds were applied by pipette from 10′000 ppm DMSO stock solutions into 24-well plates and mixed with agar. […] […] […] Spodoptera eggs were pipetted through a plastic stencil on a humid gel blotting paper and the plate closed with it. The samples were assessed for mortality, anti-feedant effect and growth inhibition in comparison to untreated samples 6 days after infestation.

[10] = tested on: Bemisia tabaci (Cotton White Fly); assay: Bemisia tabaci feeding/contact activity; settings: foliar, 144 h, application rate of 200 ppm, adult white flies on sprayed cotton leaf discs, 6 days after incubation
Procedure: Example B1: Bemisia tabaci (Cotton White Fly): Feeding/Contact Activity
Cotton leaf discs were placed on agar in 24-well microtiter plates and sprayed with aqueous test solutions prepared from 10′000 ppm DMSO stock solutions. After drying the leaf discs were infested with adult white flies. The samples were checked for mortality 6 days after incubation.

[11] = tested on: Frankliniella occidentalis (Western Flower Thrips); assay: Frankliniella occidentalis feeding/contact activity; settings: foliar, 168 h, application rate of 200 ppm, population of mixed ages on sprayed sunflower leaf discs, 7 days after infestation
Procedure: Example B4: Frankliniella occidentalis (Western Flower Thrips): Feeding/Contact Activity
as §1, with “in” for “in a”, “plates” for “plate”, “[…]” for “10′000 ppm”, “drying” for “drying,”, “a Frankliniella” for “an aphid”, “7” for “6”

[12] = tested on: Aedes aegypti (Yellow Fever Mosquito); assay: whole plant or invertebrate; settings: 48 h, test rate of 5 ppm, L2 larvae in 96-well plates, 2 days incubation, read-out: effect in at least one of the two categories (mortality or growth inhibition)
Procedure: Example B12: Aedes aegypti (Yellow Fever Mosquito): Feeding Contact Activity
10 to 15 Aedes larvae (L2) together with a nutrition mixture were placed in 96-well microtiter plates. Test compounds were pipetted into the wells. After an incubation period of 2 days insects were assessed for mortality and growth inhibition.

CCS(=O)(=O)c1cc(C(F)(F)F)cnc1-c1nc2cc(C3CC3)cnc2n1C [Compound P1, 6-cyclopropyl-2-[3-ethylsulfonyl-5-(trifluoromethyl)-2-pyridyl]-3-methyl-imidazo[4,5-b]pyridine]
≥ 80%: mortality at 12 ppm [1]

CCS(=O)(=O)c1cc(C(F)(F)F)cnc1-c1nc2cc(C3(C#N)CCC3)cnc2n1C [Compound P3, 1-[2-[3-ethylsulfonyl-5-(trifluoromethyl)-2-pyridyl]-3-methyl-imidazo[4,5-b]pyridin-6-yl]cyclobutanecarbonitrile]
≥ 80%: mortality at 200 ppm [2]

CCS(=O)(=O)c1cc(C(F)(F)F)cnc1-c1nc2cc(C3CC3C#N)cnc2n1C (stereo not drawn) [Compound P4, 2-[2-[3-ethylsulfonyl-5-(trifluoromethyl)-2-pyridyl]-3-methyl-imidazo[4,5-b]pyridin-6-yl]cyclopropanecarbonitrile]
≥ 80%: mortality at 200 ppm [3]

CCS(=O)(=O)c1cc(C(F)(F)F)cnc1-c1nc2cc(C3CC3(C)C#N)cnc2n1C (stereo not drawn) [Compound P5, 2-[2-[3-ethylsulfonyl-5-(trifluoromethyl)-2-pyridyl]-3-methyl-imidazo[4,5-b]pyridin-6-yl]-1-methyl-cyclopropanecarbonitrile]
≥ 80%: percent control (mortality, anti-feedant effect or growth inhibition) at 200 ppm [4]

CCS(=O)(=O)c1cc(C(F)(F)F)cnc1-c1nc2cc(C3CC3)cnc2n1C [Compound P6]
≥ 80%: mortality at 200 ppm [2] | percent effect (mortality or growth inhibition) at 200 ppm [5] | mortality at 200 ppm [6] | mortality at 24 ppm [7] | percent effect (mortality or growth inhibition) at 200 ppm [8] | percent control (mortality, anti-feedant effect or growth inhibition) at 200 ppm [4] | percent control (mortality, anti-feedancy or growth inhibition) at 12.5 ppm [9]

CCS(=O)(=O)c1cc(C(F)(F)F)cnc1-c1nc2cc(C3(C#N)CC3)cnc2n1C [Compound P2, 1-[2-[3-ethylsulfonyl-5-(trifluoromethyl)-2-pyridyl]-3-methyl-imidazo[4,5-b]pyridin-6-yl]cyclopropanecarbonitrile]
≥ 80%: mortality at 200 ppm [10] | mortality at 200 ppm [2] | mortality at 200 ppm [11] | mortality at 200 ppm [6] | mortality at 24 ppm [7] | mortality at 12 ppm [1] | percent effect (mortality or growth inhibition) at 200 ppm [8] | percent control (mortality, anti-feedant effect or growth inhibition) at 200 ppm [4] | percent control (mortality, anti-feedancy or growth inhibition) at 12.5 ppm [9] | percent effect (mortality or growth inhibition) at 5 ppm [12]
